In PubChem BioAssay (NCI) one finds TGI and GI50 data, which are given here for 15 compounds.

The structures appear in SMILES notation. Several values for one entry are separate records, joined by “and”; a condition that tells them apart may be missing. Equal values may be shown once.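 Five compound concentrations were applied to cells in 96-well plates for 48 hours; endpoints were derived by simple linear interpolation of the resulting dose-response curve. The concentration for 50% growth inhibition is given as GI50. TGI is the concentration that stops growth completely.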

Some test systems named below: HCT-116 colon; IGROV1 ovarian; KM12 colon; M14 melanoma; RPMI-8226 leukemia; SF-268 CNS; SK-MEL-28 melanoma; U251 CNS; LOX IMVI melanoma.
What all share (test): DTP human tumour cell line panel, 48 h

Usually TGI stands for the concentration at which net growth stops. Regarding `CN(C)C(=S)/N=c1\ssc(=S)n1C`, the TGI with HCT-116 colon, with IGROV1 ovarian, in the experiment on KM12 colon, with M14 melanoma, in the experiment with RPMI-8226 leukemia and in the experiment with SF-268 CNS was above 100 µM throughout. Besides, the TGI in the experiment on SK-MEL-28 melanoma and in the experiment on U251 CNS was above 100 µM in each case.
Turning to `COC(=O)C(=O)C(CC(=O)Nc1ccc(C)cc1)C(=O)OC` (centres undefined), the TGI with HCT-116 colon, in the experiment with IGROV1 ovarian, in the experiment on KM12 colon, in the experiment with LOX IMVI melanoma, with M14 melanoma and in the experiment on RPMI-8226 leukemia was above 100 µM throughout. In addition, the TGI with SF-268 CNS, in the experiment with SK-MEL-28 melanoma and with U251 CNS was above 100 µM throughout.
Take `COC(=O)c1cc(=O)nc2cc3cccccc3n12`: the TGI in the experiment with HCT-116 colon, in the experiment with IGROV1 ovarian, in the experiment on KM12 colon, in the experiment on LOX IMVI melanoma, in the experiment on M14 melanoma and in the experiment on RPMI-8226 leukemia was above 100 µM throughout. Besides, the TGI in the experiment on SK-MEL-28 melanoma and in the experiment with U251 CNS was above 100 µM each time.
Regarding `C1=Cc2nc1c(-c1ccccc1)c1ccc([nH]1)c(-c1ccccc1)c1nc(c(-c3ccccc3)c3ccc([nH]3)c2-c2ccccc2)C=C1`, the TGI in the experiment with HCT-116 colon, in the experiment with IGROV1 ovarian, with KM12 colon, in the experiment with LOX IMVI melanoma, with M14 melanoma and in the experiment on RPMI-8226 leukemia was above 100 µM throughout. For the same compound, the total growth inhibition concentration (TGI) with SF-268 CNS, in the experiment with SK-MEL-28 melanoma and with U251 CNS was above 100 µM throughout.
On to `COc1ccccc1-c1cc(=O)c2cc(C)c(C)c(C(=O)O)c2o1`, for which the TGI in the experiment with HCT-116 colon, in the experiment on IGROV1 ovarian, in the experiment with KM12 colon, in the experiment with LOX IMVI melanoma, in the experiment with M14 melanoma and in the experiment on RPMI-8226 leukemia was above 100 µM in each case. The concentration for total growth inhibition (TGI) in the experiment with SF-268 CNS, in the experiment with SK-MEL-28 melanoma and in the experiment with U251 CNS was above 100 µM each time.
In the case of `O=C1c2ccccc2C(=O)C12CCc1ccccc12`, the TGI in the experiment on IGROV1 ovarian, with LOX IMVI melanoma, with M14 melanoma, with SF-268 CNS, with SK-MEL-28 melanoma and in the experiment on U251 CNS was above 100 µM in each case.
`COc1cc(C(=O)N[C@H]2CCc3cc(OC)c(OC)c(OC)c3-c3ccc(SC)c(=O)cc32)cc(OC)c1OC`: the TGI in the experiment with HCT-116 colon was 3.02 µM and 17 µM; in the experiment on IGROV1 ovarian it was 25 µM and 62.7 µM; in the experiment on KM12 colon, 16.4 µM; in the experiment on LOX IMVI melanoma it was 25 µM and 19.2 µM; in the experiment on RPMI-8226 leukemia it was 25 µM and > 100 µM; in the experiment on SF-268 CNS it was 25 µM and 49 µM. Besides, the TGI in the experiment on SK-MEL-28 melanoma is above 100 µM; in the experiment on U251 CNS, 0.0812 µM.
For `CCOc1ccc(N=C(NC(=O)c2ccccc2)SC)cc1`, the total growth inhibition concentration (TGI) in the experiment on HCT-116 colon, in the experiment on IGROV1 ovarian, in the experiment on LOX IMVI melanoma, with M14 melanoma, in the experiment with RPMI-8226 leukemia and in the experiment with SF-268 CNS was above 100 µM each time. The TGI in the experiment on SK-MEL-28 melanoma and in the experiment with U251 CNS was above 100 µM throughout.
For `CC1(C)OC(=S)N(c2ccccc2)C12C=Cc1cc3ccccc3nc1S2` (centres undefined), the TGI in the experiment on HCT-116 colon, in the experiment with IGROV1 ovarian, in the experiment with KM12 colon, with LOX IMVI melanoma, in the experiment on M14 melanoma and in the experiment with RPMI-8226 leukemia was above 100 µM each time. The TGI with SF-268 CNS, with SK-MEL-28 melanoma and in the experiment with U251 CNS was above 100 µM throughout.
In the case of `O=C1CCC2(c3ccccc3)Nc3ccccc3N12` (centres undefined), the TGI in the experiment on IGROV1 ovarian, in the experiment on KM12 colon, in the experiment on LOX IMVI melanoma, with M14 melanoma, with RPMI-8226 leukemia and in the experiment with SF-268 CNS was above 100 µM throughout. In addition, the TGI in the experiment with SK-MEL-28 melanoma and in the experiment on U251 CNS was above 100 µM throughout.
Consider `O=c1c2c(-c3ccccc3)c3ccccc3nc2cnn1-c1ccccc1`, for which the TGI in the experiment on HCT-116 colon, with IGROV1 ovarian, in the experiment on KM12 colon, in the experiment on LOX IMVI melanoma, in the experiment on M14 melanoma and with RPMI-8226 leukemia was above 100 µM throughout. The TGI with SF-268 CNS, in the experiment with SK-MEL-28 melanoma and with U251 CNS was above 100 µM in each case.
As to `CCC1=CCN(c2cc(C)ccn2)OC1c1ccccc1` (centres undefined), the TGI is above 100 µM with HCT-116 colon; above 100 µM with IGROV1 ovarian; above 100 µM with KM12 colon; above 100 µM in the experiment on LOX IMVI melanoma; above 100 µM with M14 melanoma; 67.1 µM in the experiment with RPMI-8226 leukemia. The figures for the TGI in the experiment with SF-268 CNS, in the experiment on SK-MEL-28 melanoma and in the experiment with U251 CNS were above 100 µM, 77.1 µM and 46.2 µM, respectively.
A word on the GI50: it is the concentration that inhibits growth by half. With `CC(=O)OC(C(=O)[O][Sn]([CH3])([CH3])[CH3])c1ccccc1` (centres undefined), the GI50 with HCT-116 colon, in the experiment on IGROV1 ovarian, in the experiment on KM12 colon, in the experiment on LOX IMVI melanoma, in the experiment with M14 melanoma and in the experiment on RPMI-8226 leukemia was above 100 µM throughout. Further, the GI50 with SF-268 CNS, in the experiment with SK-MEL-28 melanoma and with U251 CNS was above 100 µM throughout. Further, the TGI in the experiment on HCT-116 colon, in the experiment on IGROV1 ovarian, in the experiment with KM12 colon, in the experiment on LOX IMVI melanoma, in the experiment with M14 melanoma and with RPMI-8226 leukemia was above 100 µM in each case. The TGI in the experiment on SF-268 CNS, in the experiment on SK-MEL-28 melanoma and in the experiment on U251 CNS was above 100 µM each time.
On to `COC(=O)C(C(=O)C(=O)Nc1ccc(C)cc1C)c1csc(-n2nc(-c3ccccc3)cc2-c2ccccc2)n1` (centres undefined), for which the TGI with HCT-116 colon, in the experiment on IGROV1 ovarian, with KM12 colon, in the experiment on LOX IMVI melanoma, in the experiment on M14 melanoma and in the experiment on SF-268 CNS was above 100 µM in each case. For the same compound, the TGI in the experiment on U251 CNS is above 100 µM.
`C=C1C(=O)C23[C@H](O)C1CC[C@H]2[C@]12COC3(O)[C@@H](O)[C@@H]1C(C)(C)CC[C@@H]2O`: the TGI in the experiment on HCT-116 colon stood at 19.3 µM; with IGROV1 ovarian, 38.7 µM; in the experiment with KM12 colon it was 31.4 µM; in the experiment on LOX IMVI melanoma, 33.3 µM; with M14 melanoma, 18.5 µM; with RPMI-8226 leukemia, 29.3 µM. Further, the TGI is 18.3 µM with SF-268 CNS, 12.9 µM in the experiment on SK-MEL-28 melanoma and 18.9 µM with U251 CNS.
